Measured values taken from patent US20230085307A1, “PYRIDAZINONE COMPOUND AND HERBICIDE” (NISSAN CHEMICAL CORPORATION, priority 2019, published 2023).

Columns and labels:
persian speedwell [1] = assay: Test Example 4: herbicidal effect by soil treatment (Table 19, symbol R); assay type: in vivo, Persian speedwell (Veronica persica); details: amount of applied herbicide 320 g/ha
Outline: (§1)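 Soil-surface application: an emulsion agent diluted with water to the predetermined dose is sprayed uniformly over seeds lying under roughly 1.5 cm of sterilized diluvial soil. Boxes stay in a greenhouse at 25° C. to 30° C. Three weeks later, each species is graded on previously defined criteria.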

blackgrass [2] = assay: Test Example 4: herbicidal effect by soil treatment (Table 19, symbol J); assay type: in vivo, blackgrass (Alopecurus myosuroides); details: amount of applied herbicide 320 g/ha
Outline: as §1

oval-leafed pondweed = assay: Test Example 1: herbicidal activity, application before weed generation under submerged conditions (Table 16, symbol C); assay type: in vivo, oval-leafed pondweed (Monochoria vaginalis); details: 320 g/ha applied herbicide
Outline: (§2)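 Submerged Wagner pots (alluvial soil, 4 cm water) sown with weed seeds and planted with 2.5-leaf rice seedlings; emulsifiable concentrate diluted in water applied to water surface on sowing day. Held in greenhouse at 25-30 °C; injury scored 0-5 by herbicidal rate after three weeks.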

windgrass [3] = assay: Test Example 4: herbicidal effect by soil treatment (Table 19, symbol L); assay type: in vivo, windgrass (Apera spica-venti); details: amount of applied herbicide 320 g/ha
Outline: as §1

chickweed [4] = assay: Test Example 4: herbicidal effect by soil treatment (Table 19, symbol P); assay type: in vivo, common chickweed (Stellaria media); details: amount of applied herbicide 320 g/ha
Outline: as §1

lambsquarters [5] = assay: Test Example 4: herbicidal effect by soil treatment (Table 19, symbol O); assay type: in vivo, lambsquarters (Chenopodium album); details: amount of applied herbicide 320 g/ha
Outline: as §1

Italian ryegrass [6] = assay: Test Example 5: herbicidal effect by foliage application, plastic box (Table 20, symbol K); assay type: in vivo, Italian ryegrass (Lolium multiflorum); details: foliage application, 320 g/ha, evaluated three weeks after application
Outline: (§3)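 Sow seeds spot-wise in sterilized diluvial soil; cover with ~1.5 cm soil. Grow 14 days in greenhouse, 25° C. to 30° C. Spray foliage with emulsion diluted to predetermined amount. Rate effect after 3 weeks.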

late watergrass = assay: Test Example 1: herbicidal activity, application before weed generation under submerged conditions (Table 16, symbol A); assay type: in vivo, late watergrass (Echinochloa oryzicola); details: 320 g/ha applied herbicide
Outline: as §2

chickweed [7] = assay: Test Example 5: herbicidal effect by foliage application, plastic box (Table 20, symbol P); assay type: in vivo, common chickweed (Stellaria media); details: foliage application, 320 g/ha, evaluated three weeks after application
Outline: as §3

barnyard grass [8] = assay: Test Example 5: herbicidal effect by foliage application, plastic box (Table 20, symbol H); assay type: in vivo, barnyard grass (Echinochloa crus-galli); details: foliage application, 320 g/ha, evaluated three weeks after application
Outline: as §3

Japanese bulrush = assay: Test Example 1: herbicidal activity, application before weed generation under submerged conditions (Table 16, symbol B); assay type: in vivo, Japanese bulrush (Schoenoplectus juncoides); details: 320 g/ha applied herbicide
Outline: as §2

Chinese sprangletop = assay: Test Example 3: herbicidal effect by foliage application, Wagner pot (Table 18, symbol D); assay type: in vivo, chinese sprangletop (Leptochloa chinensis); details: amount of applied herbicide 320 g/ha
Outline: (§4)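 Plants were sown in alluvial soil held under 0.1–0.5 cm standing water and grown 14 days in a greenhouse at 25–30 °C. An emulsifiable formulation, water-diluted to the set dose, was then sprayed onto the foliage, and effects were scored three weeks later using previously defined criteria.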

southern crabgrass [9] = assay: Test Example 5: herbicidal effect by foliage application, plastic box (Table 20, symbol F); assay type: in vivo, southern crabgrass (Digitaria ciliaris); details: foliage application, 320 g/ha, evaluated three weeks after application
Outline: as §3

Italian ryegrass [10] = assay: Test Example 4: herbicidal effect by soil treatment (Table 19, symbol K); assay type: in vivo, Italian ryegrass (Lolium multiflorum); details: amount of applied herbicide 320 g/ha
Outline: as §1

velvetleaf [11] = assay: Test Example 4: herbicidal effect by soil treatment (Table 19, symbol M); assay type: in vivo, velvetleaf (Abutilon theophrasti); details: amount of applied herbicide 320 g/ha
Outline: as §1

green foxtail [12] = assay: Test Example 5: herbicidal effect by foliage application, plastic box (Table 20, symbol G); assay type: in vivo, green foxtail (Setaria viridis); details: foliage application, 320 g/ha, evaluated three weeks after application
Outline: as §3

persian speedwell [13] = assay: Test Example 5: herbicidal effect by foliage application, plastic box (Table 20, symbol R); assay type: in vivo, Persian speedwell (Veronica persica); details: foliage application, 320 g/ha, evaluated three weeks after application
Outline: as §3

green foxtail [14] = assay: Test Example 4: herbicidal effect by soil treatment (Table 19, symbol G); assay type: in vivo, green foxtail (Setaria viridis); details: amount of applied herbicide 320 g/ha
Outline: as §1

rice flat sedge = assay: Test Example 3: herbicidal effect by foliage application, Wagner pot (Table 18, symbol E); assay type: in vivo, rice flat sedge (Cyperus iria); details: amount of applied herbicide 320 g/ha
Outline: as §4

blackgrass [15] = assay: Test Example 5: herbicidal effect by foliage application, plastic box (Table 20, symbol J); assay type: in vivo, blackgrass (Alopecurus myosuroides); details: foliage application, 320 g/ha, evaluated three weeks after application
Outline: as §3

southern crabgrass [16] = assay: Test Example 4: herbicidal effect by soil treatment (Table 19, symbol F); assay type: in vivo, southern crabgrass (Digitaria ciliaris); details: amount of applied herbicide 320 g/ha
Outline: as §1

wild oat [17] = assay: Test Example 5: herbicidal effect by foliage application, plastic box (Table 20, symbol I); assay type: in vivo, wild oat (Avena fatua); details: foliage application, 320 g/ha, evaluated three weeks after application
Outline: as §3

redroot pigweed [18] = assay: Test Example 4: herbicidal effect by soil treatment (Table 19, symbol N); assay type: in vivo, redroot pigweed (Amaranthus retroflexus); details: amount of applied herbicide 320 g/ha
Outline: as §1

barnyard grass [19] = assay: Test Example 3: herbicidal effect by foliage application, Wagner pot (Table 18, symbol H); assay type: in vivo, barnyard grass (Echinochloa crus-galli); details: amount of applied herbicide 320 g/ha
Outline: as §4

redroot pigweed [20] = assay: Test Example 5: herbicidal effect by foliage application, plastic box (Table 20, symbol N); assay type: in vivo, redroot pigweed (Amaranthus retroflexus); details: foliage application, 320 g/ha, evaluated three weeks after application
Outline: as §3

velvetleaf [21] = assay: Test Example 5: herbicidal effect by foliage application, plastic box (Table 20, symbol M); assay type: in vivo, velvetleaf (Abutilon theophrasti); details: foliage application, 320 g/ha, evaluated three weeks after application
Outline: as §3

windgrass [22] = assay: Test Example 5: herbicidal effect by foliage application, plastic box (Table 20, symbol L); assay type: in vivo, windgrass (Apera spica-venti); details: foliage application, 320 g/ha, evaluated three weeks after application
Outline: as §3

wild oat [23] = assay: Test Example 4: herbicidal effect by soil treatment (Table 19, symbol I); assay type: in vivo, wild oat (Avena fatua); details: amount of applied herbicide 320 g/ha
Outline: as §1

lambsquarters [24] = assay: Test Example 5: herbicidal effect by foliage application, plastic box (Table 20, symbol O); assay type: in vivo, lambsquarters (Chenopodium album); details: foliage application, 320 g/ha, evaluated three weeks after application
Outline: as §3

barnyard grass [25] = assay: Test Example 4: herbicidal effect by soil treatment (Table 19, symbol H); assay type: in vivo, barnyard grass (Echinochloa crus-galli); details: amount of applied herbicide 320 g/ha
Outline: as §1

Cc1nn(C)c(=O)c(-c2c(-c3ccccc3Cl)sc3ccc(F)cc23)c1O [2-203]
R: persian speedwell, herbicidal effect rating (persian speedwell [1]): 0 (Herbicidal rate of 5% or less (almost no effect)) | J: blackgrass, herbicidal effect rating (blackgrass [2]): 0 (Herbicidal rate of 5% or less (almost no effect)) | Herbicidal effect on C: oval-leafed pondweed (grade 0-5) (oval-leafed pondweed): 0 (Herbicidal rate of 5% or less (almost no effect)) | L: windgrass, herbicidal effect rating (windgrass [3]): 0 (Herbicidal rate of 5% or less (almost no effect)) | P: chickweed, herbicidal effect rating (chickweed [4]): 3 (Herbicidal rate of 40% or more and less than 70%) | O: lambsquarters, herbicidal effect rating (lambsquarters [5]): 3 (Herbicidal rate of 40% or more and less than 70%) | herbicidal effect on K: Italian ryegrass (criteria 0-5) (Italian ryegrass [6]): 2 (Herbicidal rate of 20% or more and less than 40%) | Herbicidal effect on A: late watergrass (grade 0-5) (late watergrass): 2 (Herbicidal rate of 20% or more and less than 40%) | herbicidal effect on P: chickweed (criteria 0-5) (chickweed [7]): 5 (Herbicidal rate of 90% or more (almost completely withered)) | herbicidal effect on H: barnyard grass (criteria 0-5) (barnyard grass [8]): 2 (Herbicidal rate of 20% or more and less than 40%) | Herbicidal effect on B: Japanese bulrush (grade 0-5) (Japanese bulrush): 0 (Herbicidal rate of 5% or less (almost no effect)) | herbicidal effect on D: Chinese sprangletop (Chinese sprangletop): 4 (Herbicidal rate of 70% or more and less than 90%) | herbicidal effect on F: southern crabgrass (criteria 0-5) (southern crabgrass [9]): 0 (Herbicidal rate of 5% or less (almost no effect)) | K: Italian ryegrass, herbicidal effect rating (Italian ryegrass [10]): 0 (Herbicidal rate of 5% or less (almost no effect)) | M: velvetleaf, herbicidal effect rating (velvetleaf [11]): 1 (Herbicidal rate of 5% or more and less than 20%) | herbicidal effect on G: green foxtail (criteria 0-5) (green foxtail [12]): 4 (Herbicidal rate of 70% or more and less than 90%) | herbicidal effect on R: persian speedwell (criteria 0-5) (persian speedwell [13]): 4 (Herbicidal rate of 70% or more and less than 90%) | G: green foxtail, herbicidal effect rating (green foxtail [14]): 0 (Herbicidal rate of 5% or less (almost no effect)) | herbicidal effect on E: rice flat sedge (rice flat sedge): 5 (Herbicidal rate of 90% or more (almost completely withered)) | herbicidal effect on J: blackgrass (criteria 0-5) (blackgrass [15]): 0 (Herbicidal rate of 5% or less (almost no effect)) | F: southern crabgrass, herbicidal effect rating (southern crabgrass [16]): 0 (Herbicidal rate of 5% or less (almost no effect)) | herbicidal effect on I: wild oat (criteria 0-5) (wild oat [17]): 0 (Herbicidal rate of 5% or less (almost no effect)) | N: redroot pigweed, herbicidal effect rating (redroot pigweed [18]): 2 (Herbicidal rate of 20% or more and less than 40%) | herbicidal effect on H: barnyard grass (barnyard grass [19]): 4 (Herbicidal rate of 70% or more and less than 90%) | herbicidal effect on N: redroot pigweed (criteria 0-5) (redroot pigweed [20]): 3 (Herbicidal rate of 40% or more and less than 70%) | herbicidal effect on M: velvetleaf (criteria 0-5) (velvetleaf [21]): 4 (Herbicidal rate of 70% or more and less than 90%) | herbicidal effect on L: windgrass (criteria 0-5) (windgrass [22]): 4 (Herbicidal rate of 70% or more and less than 90%) | I: wild oat, herbicidal effect rating (wild oat [23]): 0 (Herbicidal rate of 5% or less (almost no effect)) | herbicidal effect on O: lambsquarters (criteria 0-5) (lambsquarters [24]): 3 (Herbicidal rate of 40% or more and less than 70%) | H: barnyard grass, herbicidal effect rating (barnyard grass [25]): 0 (Herbicidal rate of 5% or less (almost no effect))
